# Patent US20230106032A1, “IMIDAZOTRIAZINES ACTING ON CANCER VIA INHIBITION OF CDK12” (Bayer Aktiengesellschaft, priority 2020, published 2023)
# pIC50: −log10 of the molar value.
# Columns and labels:
# CDK12/CycK = target: T1, CDK12/CycK (Homo sapiens, UniProt Q9NYV4); assay: CDK12/CycK high ATP kinase assay (TR-FRET, 2 mM ATP); type: biochemical; conditions: read-out: CDK12/CyclinK, 2 mM ATP (high ATP), IC50-[mol/l] (median)
# T1 construct: His-CDK12 (aa Q696-S1082); made in house; host or cells: Hi-5 insect cells (baculovirus co-infection with CAK1)
# T1 sequence (Q9NYV4 with tags, fused parts or gaps): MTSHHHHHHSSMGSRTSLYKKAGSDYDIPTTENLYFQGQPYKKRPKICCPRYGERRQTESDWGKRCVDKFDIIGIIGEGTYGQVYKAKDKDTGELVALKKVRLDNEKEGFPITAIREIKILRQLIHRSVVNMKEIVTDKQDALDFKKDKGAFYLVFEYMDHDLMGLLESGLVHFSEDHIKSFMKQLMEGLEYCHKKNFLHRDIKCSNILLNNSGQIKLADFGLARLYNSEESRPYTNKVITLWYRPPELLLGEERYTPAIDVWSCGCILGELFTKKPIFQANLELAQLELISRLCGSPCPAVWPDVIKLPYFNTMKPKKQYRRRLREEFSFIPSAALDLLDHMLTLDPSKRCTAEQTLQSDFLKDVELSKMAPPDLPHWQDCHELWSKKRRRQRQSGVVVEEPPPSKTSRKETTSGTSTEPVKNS
# T1 sequence (O75909 with tags, fused parts or gaps partner limits assumed): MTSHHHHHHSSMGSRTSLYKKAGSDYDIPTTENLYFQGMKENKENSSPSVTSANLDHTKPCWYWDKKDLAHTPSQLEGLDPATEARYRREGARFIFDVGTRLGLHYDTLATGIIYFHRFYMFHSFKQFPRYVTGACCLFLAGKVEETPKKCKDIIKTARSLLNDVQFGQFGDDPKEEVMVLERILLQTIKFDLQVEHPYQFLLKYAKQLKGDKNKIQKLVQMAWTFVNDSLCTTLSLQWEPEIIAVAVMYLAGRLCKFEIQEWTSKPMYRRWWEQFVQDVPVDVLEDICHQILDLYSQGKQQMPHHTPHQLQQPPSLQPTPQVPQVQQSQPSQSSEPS
# Description: In the context of the present invention, the term “IC50 CDK12 hATP” refers to the IC50 values obtained according to the assay described in this section (2.2) herein below, i.e. the IC50 values for the inhibition of CDK12 at high ATP.
# CDK12/CycK-inhibitory activity of compounds of the present invention at 2 millimol/L adenosine-tri-phosphate (ATP) was quantified employing the TR-FRET (TR-FRET=Time Resolved Fluorescence Energy Transfer) based CDK12/CycK activity inhibition assay as described in the following paragraphs.
# A complex of human recombinant CDK12 and human recombinant CycK (both N-terminally His-tagged, expression and purification as described above) was used as enzyme. As substrate for the kinase reaction biotinylated peptide biotin-Ahx-KFELLPTPPLSPSRRSGL (C-terminus in amid form) was used which can be purchased e.g. form the company Biosyntan (Berlin-Buch, Germany).
# For the assay 50 nanoL of a 100 fold concentrated solution of the test compound in DMSO was pipetted into either a black low volume 384 well microtiter plate or a black 1536 well microtiter plate (both Greiner Bio-One, Frickenhausen, Germany), 2 microL of a solution of CDK12/CycK in aqueous assay buffer [25 millimol/L HEPES pH 7.5, 20 millimol/L MgCl2, 5 millimol/L ß-glycerophosphate, 2 millimol/L EGTA, 1.0 millimol/L dithiothreitol, 0.01% (v/v) Nonidet-P40 (Sigma), 0.01% (w/v) bovine serum albumin] were added and the mixture was incubated for 15 min at 22° C. to allow pre-binding of the test compounds to the enzyme before the start of the kinase reaction. Then the kinase reaction was started by the addition of 3 microL of a solution ATP (3.33 millimol/L=> final conc. in the 5 microL assay volume is 2 millimol/L) and substrate (1.67 micromol/L=> final conc. in the 5 microL assay volume is 1 micromol/L) in assay buffer and the resulting mixture was incubated for a reaction time of 60 min at 22° C. The concentration of CDK12/CycK was adjusted depending of the activity of the enzyme lot and was chosen appropriate to have the assay in the linear range, typical concentrations were about 0.75 nanomol/L. The reaction was stopped by the addition of 3 microL of a solution of TR-FRET detection reagents (125 nanomol/L streptavidine-XL665 [Cisbio Bioassays, Codolet, France] and 0.67 nanomol/L anti-Phospho-c-Myc (Ser 62) (E1J4K)-antibody from Cell Signalling [#13748] and 2 nanomol/L LANCE EU-W1024 labeled anti-rabbit IgG antibody [Perkin-Elmer, product no. 0083]) in an aqueous EDTA-solution (133 millimol/L EDTA, 0.27% (w/v) bovine serum albumin in 66.7 millimol/L HEPES pH 7.5).
# (§1) The resulting mixture was incubated 1 h at 22° C. to allow the formation of complex between the phosphorylated biotinylated peptide and the detection reagents. Subsequently the amount of phosphorylated substrate was evaluated by measurement of the resonance energy transfer from the Eu-chelate to the streptavidine-XL. Therefore, the fluorescence emissions at 620 nm and 665 nm after excitation at 350 nm was measured in a TR-FRET reader, e.g. a Pherastar FS (BMG Labtechnologies, Offenburg, Germany) or a Viewlux (Perkin-Elmer). The ratio of the emissions at 665 nm and at […] was taken as the measure for the amount of phosphorylated substrate. The data were normalised (enzyme reaction without inhibitor=0% inhibition, all other assay components but no enzyme=100% inhibition).
# CDK9/CycT1 = target: T2, CDK9/CycT1 (Homo sapiens, UniProt P50750); assay: CDK9/CycT1 high ATP kinase assay (TR-FRET, 2 mM ATP); type: biochemical; conditions: read-out: CDK9/CyclinT1, 2 mM ATP (high ATP) IC50-[mol/l] (median)
# T2 construct: Recombinant full-length His-tagged human CDK9 and CycT1, expressed in insect cells; His; purchased Life Technologies PV4131; host or cells: insect cells
# T2 sequence (P50750 whole entry): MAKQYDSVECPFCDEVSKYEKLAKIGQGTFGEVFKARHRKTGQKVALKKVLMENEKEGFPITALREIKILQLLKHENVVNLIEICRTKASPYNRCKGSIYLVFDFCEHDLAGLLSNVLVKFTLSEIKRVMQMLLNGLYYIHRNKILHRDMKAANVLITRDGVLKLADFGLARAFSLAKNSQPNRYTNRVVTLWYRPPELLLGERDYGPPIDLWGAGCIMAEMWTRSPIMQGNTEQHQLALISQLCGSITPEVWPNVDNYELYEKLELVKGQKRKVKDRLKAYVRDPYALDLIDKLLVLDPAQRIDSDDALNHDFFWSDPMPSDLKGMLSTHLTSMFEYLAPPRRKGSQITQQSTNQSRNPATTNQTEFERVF
# T2 sequence (O60563 whole entry partner): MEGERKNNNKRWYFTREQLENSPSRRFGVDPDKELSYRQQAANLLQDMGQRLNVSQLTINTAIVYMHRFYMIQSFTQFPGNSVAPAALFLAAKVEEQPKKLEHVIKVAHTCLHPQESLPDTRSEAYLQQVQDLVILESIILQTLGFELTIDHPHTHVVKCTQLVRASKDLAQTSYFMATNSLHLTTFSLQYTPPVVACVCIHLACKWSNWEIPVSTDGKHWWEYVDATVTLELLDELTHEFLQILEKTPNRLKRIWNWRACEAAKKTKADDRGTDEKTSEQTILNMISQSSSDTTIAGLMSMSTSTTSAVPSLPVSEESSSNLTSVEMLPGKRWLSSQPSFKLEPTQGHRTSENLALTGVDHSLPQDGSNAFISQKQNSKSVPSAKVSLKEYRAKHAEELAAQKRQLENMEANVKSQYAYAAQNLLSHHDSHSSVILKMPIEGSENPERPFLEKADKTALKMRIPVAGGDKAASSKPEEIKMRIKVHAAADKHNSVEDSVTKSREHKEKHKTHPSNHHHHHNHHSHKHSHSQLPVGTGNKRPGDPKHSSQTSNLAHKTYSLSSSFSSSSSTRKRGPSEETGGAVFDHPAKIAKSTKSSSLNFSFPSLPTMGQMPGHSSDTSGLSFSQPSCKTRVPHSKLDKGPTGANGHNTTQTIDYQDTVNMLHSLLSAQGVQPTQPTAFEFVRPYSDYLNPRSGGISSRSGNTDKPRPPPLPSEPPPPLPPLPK
# Method: CDK9/CycT1-inhibitory activity of compounds of the present invention at a high ATP concentration after preincubation of enzyme and test compounds was quantified employing the CDK9/CycT1 TR-FRET assay as described in the following paragraphs.
# Recombinant full-length His-tagged human CDK9 and CycT1, expressed in insect cells and purified by Ni-NTA affinity chromatography, were purchased from Life Technologies (Cat. No PV4131). As substrate for the kinase reaction biotinylated peptide biotin-Ttds-YISPLKSPYKISEG (C-terminus in amide form) was used which can be purchased e.g. form the company JERINI peptide technologies (Berlin, Germany).
# For the assay 50 nanoL of a 100 fold concentrated solution of the test compound in DMSO was pipetted into either a black low volume 384 well microtiter plate or a black 1536 well microtiter plate (both Greiner Bio-One, Frickenhausen, Germany), 2 microL of a solution of CDK9/CycT1 in aqueous assay buffer [50 millimol/L Tris/HCl pH 8.0, 10 millimol/L MgCl2, 1.0 millimol/L dithiothreitol, 0.1 millimol/L sodium ortho-vanadate, 0.01% (v/v) Nonidet-P40 (Sigma)] were added and the mixture was incubated for 15 min at 22° C. to allow pre-binding of the test compounds to the enzyme before the start of the kinase reaction. Then the kinase reaction was started by the addition of 3 microL of a solution of adenosine-tri-phosphate (ATP, 3.3 millimol/L=> final conc. in the 5 microL assay volume is 2 millimol/L) and substrate (1.25 micromol/L=> final conc. in the 5 microL assay volume is 0.75 micromol/L) in assay buffer and the resulting mixture was incubated for a reaction time of 25 min at 22° C. The concentration of CDK9/CycT1 was adjusted depending of the activity of the enzyme lot and was chosen appropriate to have the assay in the linear range, typical concentrations were in the range of 0.5 microg/ml. The reaction was stopped by the addition of 3 microL of a solution of TR-FRET detection reagents (0.33 micromol/L streptavidine-XL665 [Cisbio Bioassays, Codolet, France] and 1.67 nanomol/L anti-RB(pSer807/pSer8l 1)-antibody from BD Pharmingen [#558389] and 2 nanomol/L LANCE EU-W1024 labeled anti-mouse IgG antibody [Perkin-Elmer, product no. AD0077]) in an aqueous EDTA-solution (167 millimol/L EDTA, 0.2% (w/v) bovine serum albumin in 100 millimol/L HEPES pH 7.5).
# as §1, with “Pherastar” for “Pherastar FS”
Structure (SMILES),pIC50 (CDK12/CycK),pIC50 (CDK9/CycT1)
"COc1cccc2[nH]c(CNc3nc(N4CCNCC4)nn4c(Br)cnc34)nc12 [Example 15, 7-bromo-N-[(4-methoxy-1H-benzimidazol-2-yl)methyl]-2-(piperazin-1-yl)imidazo[2,1-f][1,2,4]triazin-4-amine]",5.68,< 4.70
"Fc1cccc2[nH]c(CNc3nc(N4CCOCC4)nn4c(Br)cnc34)nc12 [Example 12, 7-bromo-N-[(4-fluoro-1H-benzimidazol-2-yl)methyl]-2-(morpholin-4-yl)imidazo[2,1-f][1,2,4]triazin-4-amine]",5.33,< 4.70
"Fc1ccc2[nH]c(CNc3nc(N4CCNCC4)nn4c(Br)cnc34)nc2c1F [Example 10, 7-bromo-N-[(4,5-difluoro-1H-benzimidazol-2-yl)methyl]-2-(piperazin-1-yl)imidazo[2,1-f][1,2,4]triazin-4-amine]",5.86,4.91
"COc1cccc2[nH]c(CNc3nc(N4C[C@@H](C)N[C@@H](C)C4)nn4c(Br)cnc34)nc12 [Example 14, 7-bromo-2-[rel-(3R,5S)-3,5-dimethylpiperazin-1-yl]-N-[(4-methoxy-1H-benzimidazol-2-yl)methyl]imidazo[2,1-f][1,2,4]triazin-4-amine]",5.70,< 4.74
"Fc1cccc(-c2cnc3c(NCc4nc5ccccc5[nH]4)nc(N4CCOCC4)nn23)c1 [Example 3, N-[(1H-benzimidazol-2-yl)methyl]-7-(3-fluorophenyl)-2-(morpholin-4-yl)imidazo[2,1-f][1,2,4]triazin-4-amine]",< 4.70,< 4.70
"OC[C@@H]1CCCCN1c1nc(NCc2nc3ccccc3[nH]2)c2ncc(Br)n2n1 [Example 17, [(2S)-1-(4-{[(1H-benzimidazol-2-yl)methyl]amino}-7-bromoimidazo[2,1-f][1,2,4]triazin-2-yl)piperidin-2-yl]methanol]",6.94,5.39
"CN1CCN(c2nc(NCc3nc4ccccc4[nH]3)c3ncc(Br)n3n2)CC1 [Example 6, N-[(1H-benzimidazol-2-yl)methyl]-7-bromo-2-(4-methylpiperazin-1-yl)imidazo[2,1-f][1,2,4]triazin-4-amine]",< 4.73,< 4.70
"Brc1cnc2c(NCc3nc4ccccc4[nH]3)nc(N3CCNCC3)nn12 [Example 8, N-[(1H-benzimidazol-2-yl)methyl]-7-bromo-2-(piperazin-1-yl)imidazo[2,1-f][1,2,4]triazin-4-amine]",5.25,< 4.70
"C[C@@H]1CN(c2nc(NCc3nc4ccccc4[nH]3)c3ncc(Br)n3n2)C[C@H](C)O1 [Example 4, N-[(1H-benzimidazol-2-yl)methyl]-7-bromo-2-[rel-(2R,6S)-2,6-dimethylmorpholin-4-yl]imidazo[2,1-f][1,2,4]triazin-4-amine]",6.00,4.75

# Second part, the molecule after the results:
pIC50 (CDK12/CycK),pIC50 (CDK9/CycT1),Structure (SMILES)
5.19,< 4.70,"C[C@@H]1CN(c2nc(NCc3nc4cc(F)ccc4[nH]3)c3ncc(Br)n3n2)C[C@H](C)N1 [Example 19, 7-bromo-2-[rel-(3R,5S)-3,5-dimethylpiperazin-1-yl]-N-[(5-fluoro-1H-benzimidazol-2-yl)methyl]imidazo[2,1-f][1,2,4]triazin-4-amine]"
5.74,4.85,"C[C@@H]1CN(c2nc(NCc3nc4c(F)cccc4[nH]3)c3ncc(Br)n3n2)C[C@H](C)N1 [Example 18, 7-bromo-2-[rel-(3R,5S)-3,5-dimethylpiperazin-1-yl]-N-[(4-fluoro-1H-benzimidazol-2-yl)methyl]imidazo[2,1-f][1,2,4]triazin-4-amine]"
4.97,< 4.70,"CN1CCN(c2nc(NCc3nc4ccccc4[nH]3)c3ncc(C(F)(F)F)n3n2)CC1 [Example 25, N-[(1H-benzimidazol-2-yl)methyl]-2-(4-methylpiperazin-1-yl)-7-(trifluoromethyl)imidazo[2,1-f][1,2,4]triazin-4-amine]"
5.59,< 4.71,"Fc1cccc2[nH]c(CNc3nc(N4CCNCC4)nn4c(Br)cnc34)nc12 [Example 22, 7-bromo-N-[(4-fluoro-1H-benzimidazol-2-yl)methyl]-2-(piperazin-1-yl)imidazo[2,1-f][1,2,4]triazin-4-amine]"
7.97,5.17,"Fc1ccc2[nH]c(CNc3nc(N4CCOCC4)nn4c(C(F)(F)F)cnc34)nc2c1F [Example 27, N-[(4,5-difluoro-1H-benzimidazol-2-yl)methyl]-2-(morpholin-4-yl)-7-(trifluoromethyl)imidazo[2,1-f][1,2,4]triazin-4-amine]"
7.39,5.34,"C[C@@H]1CN(c2nc(NCc3nc4c(F)c(F)ccc4[nH]3)c3ncc(C(F)(F)F)n3n2)C[C@H](C)N1 [Example 29, N-[(4,5-difluoro-1H-benzimidazol-2-yl)methyl]-2-[rel-(3R,5S)-3,5-dimethylpiperazin-1-yl]-7-(trifluoromethyl)imidazo[2,1-f][1,2,4]triazin-4-amine]"
4.78,< 4.70,"CN1CCN(c2nc(NCc3nc4cc(F)ccc4[nH]3)c3ncc(Br)n3n2)CC1 [Example 21, 7-bromo-N-[(5-fluoro-1H-benzimidazol-2-yl)methyl]-2-(4-methylpiperazin-1-yl)imidazo[2,1-f][1,2,4]triazin-4-amine]"
